Structures are written as SMILES.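 Method: 48-hour compound exposure of cells in 96-well plates, five concentrations, linear interpolation of endpoints. Abbreviation: GI50, concentration required for 50% inhibition of growth. TGI denotes the concentration required for complete inhibition of growth.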

In one assay the test system is TK-10 renal. The assay can be described thus: growth of human tumour cells (NCI), 48 h.
Take `N#CCCN(CCC#N)c1ccc(/C=C2\N=C(c3ccccc3)N(c3ccc(Cl)cc3)C2=O)cc1`: the TGI is more than 100 µM.
In the case of `Cc1c(S(=O)(=O)/N=C(\N)Nc2ccc(Cl)cc2)sc2ccc(Cl)cc12`, the TGI stood at 39.5 µM.
`NNC(=O)c1ccc[n+](CCc2ccccc2)c1`: the TGI is more than 100 µM.
Still for that read-out and setting: the same measure for `CC(=O)N/N=C1\NC(=O)C[C@H]2[C@@H]3CC=C4C[C@@H](OC(C)=O)CC[C@]4(C)[C@H]3CC[C@]12C`: 41.7 µM.
The compound `C=C[C@@H]1C(CO)=CCC2[C@H]1CCC1C(C)(C)C(=O)CC[C@]21C` (stereo partly specified) registered a TGI of more than 100 µM.
`COc1ccc2cc3c4cc5c(cc4cc[n+]3cc2c1OC)OCO5` displayed a TGI of 83.2 µM.
Regarding `CCN(CCO)CC1COc2ccccc2O1` (stereo unspecified), the TGI was more than 100 µM.
The same measure, in the same setting: the same measure for `COc1ccc2nc3cc(Cl)ccc3c(NCCCNCCCNc3c4ccc(Cl)cc4nc4ccc(OC)cc34)c2c1`: 0.588 µM; for `C/C(CC1C2CCCC1C2)=N\NC(N)=O` (stereo unspecified): more than 100 µM; for `Clc1ccc(-c2nn3c(-c4ccncc4)nnc3s2)cc1`: more than 100 µM.
In turn, `O=C1/C(=C\c2cccc(Oc3ccccc3)c2)S(=O)(=O)C(c2ccccc2)N1Cc1ccccc1` (stereo unspecified) displayed a TGI of more than 100 µM.
On the same count and under the same terms, the figure for `CCN(CC)CCOc1ccc(N2C(=O)c3cc(OC)c(OC)cc3C2=O)cc1` is more than 100 µM; for `COc1ccc(C#CC(=O)O)c(OC)c1` it is more than 100 µM.
On to `CCOC(=O)NC(=S)NN(C)C1=NCC(C)(C)S1`, for which the TGI is more than 100 µM.
On the same count and under the same terms, the figure for `O=c1c2cc3c(cc2[nH]c2ncccc12)OCO3` is more than 10 µM.

The next assay deals with SF-268 CNS. The assay is described as follows: growth of human tumour cells (NCI), 48 h.
`CS(=O)(=O)OCCn1c(=O)n(CCOS(C)(=O)=O)c(=O)n(CCOS(C)(=O)=O)c1=O` yielded a TGI of more than 100 µM.
For the compound `O=P(c1ccccc1)(c1ccccc1)N1O[C@@H](c2ccccc2)C=C[C@H]1c1ccccc1`, the TGI came to 26.2 µM.
In the case of `CC(C)(C)NC(=O)/C(=C\Sc1ccccc1)c1ccc2c(c1)OCO2`, the TGI amounted to 52.3 µM.
For the compound `COc1nc(C#CCC(C)O)nc(OC)n1` (stereo unspecified), the TGI came out at 69.6 µM.
`COC(=O)[C@]12CC[C@H]3CN(C(=O)OCc4ccccc4)[C@H]([C@H]31)[C@H](c1ccco1)N2S(=O)(=O)c1ccc(C)cc1`: the TGI is 59.3 µM.
As to `Cc1c2c(n(CCc3ccc(Cl)cc3)c1C)NN=C(C#N)S2(=O)=O`, the TGI is more than 100 µM.
`CCCn1c(CN(Cc2nc3ccccc3n2CCC)Cc2nc3ccccc3n2CCC)nc2ccccc21` yielded a TGI of 27.9 µM.
Compound `CSc1c(C#N)c(N)n2c1C(=O)N(c1ccccc1)C2=S` registered a TGI of more than 100 µM.
In the case of `COc1ccc2cc(-c3ccc(-c4ccc(C(=N)N)s4)s3)ccc2c1`, the GI50 is 2.1 µM and the TGI came out at 4.97 µM.
`N#CCCN(CCC#N)c1ccc(/C=C2\N=C(c3ccccc3)N(c3ccc(Cl)cc3)C2=O)cc1`: the TGI was more than 100 µM.
In turn, `Cc1c(S(=O)(=O)/N=C(\N)Nc2ccc(Cl)cc2)sc2ccc(Cl)cc12` yielded a TGI of 32 µM.
On the same count and under the same terms, the same measure for `NNC(=O)c1ccc[n+](CCc2ccccc2)c1`: more than 100 µM; for `CC(=O)N/N=C1\NC(=O)C[C@H]2[C@@H]3CC=C4C[C@@H](OC(C)=O)CC[C@]4(C)[C@H]3CC[C@]12C`: more than 100 µM.
As to `C=C[C@@H]1C(CO)=CCC2[C@H]1CCC1C(C)(C)C(=O)CC[C@]21C` (stereo partly specified), the TGI was more than 100 µM.
The same measure, in the same setting: the same measure for `COc1ccc2cc3c4cc5c(cc4cc[n+]3cc2c1OC)OCO5`: 18.5 µM; for `CCN(CCO)CC1COc2ccccc2O1` (stereo unspecified): more than 100 µM.
In turn, `C/C(CC1C2CCCC1C2)=N\NC(N)=O` (stereo unspecified) gave a TGI of more than 100 µM.
As for `N#CC(C#N)=CNC(=S)c1ccncc1`, the TGI is more than 100 µM.
`Clc1ccc(-c2nn3c(-c4ccncc4)nnc3s2)cc1` displayed a TGI of more than 100 µM.
For the compound `CCN(CC)CCOc1ccc(N2C(=O)c3cc(OC)c(OC)cc3C2=O)cc1`, the TGI was more than 100 µM.
Same read-out and setting: the figure for `CSc1cc(Cl)c(C)cc1S(=O)(=O)NC(=O)NNc1ccc(Cl)cc1` is more than 100 µM; for `O=c1c2cc3c(cc2[nH]c2ncccc12)OCO3` it is more than 10 µM.

The subject of another assay is MOLT-4 leukemia. The assay can be described thus: growth of human tumour cells (NCI), 48 h.
Compound `CS(=O)(=O)OCCn1c(=O)n(CCOS(C)(=O)=O)c(=O)n(CCOS(C)(=O)=O)c1=O` registered a TGI of more than 100 µM.
As to `O=P(c1ccccc1)(c1ccccc1)N1O[C@@H](c2ccccc2)C=C[C@H]1c1ccccc1`, the TGI came out at 27.5 µM.
Take `CC(C)(C)NC(=O)/C(=C\Sc1ccccc1)c1ccc2c(c1)OCO2`: the TGI is more than 100 µM.
The compound `COc1nc(C#CCC(C)O)nc(OC)n1` (stereo unspecified) had a TGI of more than 100 µM.
Same read-out and setting: the same measure for `COC(=O)[C@]12CC[C@H]3CN(C(=O)OCc4ccccc4)[C@H]([C@H]31)[C@H](c1ccco1)N2S(=O)(=O)c1ccc(C)cc1`: more than 100 µM.
`Cc1c2c(n(CCc3ccc(Cl)cc3)c1C)NN=C(C#N)S2(=O)=O`: the TGI is more than 100 µM.
For the compound `CCN(C(=S)N[C@@H](Cc1ccccc1)C(=O)N[C@@H](CC(C)C)C(=O)OC)c1ccccc1`, the TGI is 81.2 µM.
Compound `CCCn1c(CN(Cc2nc3ccccc3n2CCC)Cc2nc3ccccc3n2CCC)nc2ccccc21` yielded a TGI of 40.8 µM.
`CSc1c(C#N)c(N)n2c1C(=O)N(c1ccccc1)C2=S`: the TGI is more than 100 µM.
In the case of `COc1ccc2cc(-c3ccc(-c4ccc(C(=N)N)s4)s3)ccc2c1`, the GI50 was 2.17 µM and the TGI came out at 6.7 µM.
`N#CCCN(CCC#N)c1ccc(/C=C2\N=C(c3ccccc3)N(c3ccc(Cl)cc3)C2=O)cc1` displayed a TGI of more than 100 µM.
On to `Cc1c(S(=O)(=O)/N=C(\N)Nc2ccc(Cl)cc2)sc2ccc(Cl)cc12`, for which the TGI came out at 78.1 µM.
The same measure, in the same setting: the same measure for `NNC(=O)c1ccc[n+](CCc2ccccc2)c1`: more than 100 µM.
Still for that read-out and setting: the figure for `CC(=O)N/N=C1\NC(=O)C[C@H]2[C@@H]3CC=C4C[C@@H](OC(C)=O)CC[C@]4(C)[C@H]3CC[C@]12C` is more than 100 µM; for `C=C[C@@H]1C(CO)=CCC2[C@H]1CCC1C(C)(C)C(=O)CC[C@]21C` (stereo partly specified) it is more than 100 µM; for `COc1ccc2cc3c4cc5c(cc4cc[n+]3cc2c1OC)OCO5` it is more than 100 µM.
Compound `CCN(CCO)CC1COc2ccccc2O1` (stereo unspecified) yielded a TGI of more than 100 µM.
`COc1ccc2nc3cc(Cl)ccc3c(NCCCNCCCNc3c4ccc(Cl)cc4nc4ccc(OC)cc34)c2c1` gave a TGI of more than 100 µM.
In the case of `C/C(CC1C2CCCC1C2)=N\NC(N)=O` (stereo unspecified), the TGI was more than 100 µM.
`N#CC(C#N)=CNC(=S)c1ccncc1` gave a TGI of more than 100 µM.
With `Clc1ccc(-c2nn3c(-c4ccncc4)nnc3s2)cc1`, the TGI was more than 100 µM.
`O=C1/C(=C\c2cccc(Oc3ccccc3)c2)S(=O)(=O)C(c2ccccc2)N1Cc1ccccc1` (stereo unspecified) had a TGI of 7.7 µM.
In turn, `CCN(CC)CCOc1ccc(N2C(=O)c3cc(OC)c(OC)cc3C2=O)cc1` had a TGI of more than 100 µM.
The compound `COc1ccc(C#CC(=O)O)c(OC)c1` registered a TGI of more than 100 µM.
On to `CSc1cc(Cl)c(C)cc1S(=O)(=O)NC(=O)NNc1ccc(Cl)cc1`, for which the TGI is more than 100 µM.
On the same count and under the same terms, the same measure for `CCOC(=O)NC(=S)NN(C)C1=NCC(C)(C)S1`: more than 100 µM.
On to `O=c1c2cc3c(cc2[nH]c2ncccc12)OCO3`, for which the TGI is more than 10 µM.

The values are drawn from PubChem BioAssay (NCI).
